Measurements taken from patent publication US20250346615A1, “GLYCEROPHOSP[…] PREVENTING AND TREATING COVID-19 INFECTIONS AND METHOD FOR OBTAINING IT” (PLANTAREI BIOTECH S.R.L., priority 2022, published 2025).
Where two headings read alike, the source gives them in different places.

Key:
Human monocytes [1] = conditions: GPI 300 uM; for protein expression level (fold increase over control cells): LPS stimulus
Excerpt: (§1) The purpose of the experiments conducted is the in vitro evaluation of the anti-inflammatory activity and of the immune modulating power in the response to bacterial or viral activation, of monocytes activated and treated with GPI. Measurements of protein production or miRNA levels were expressed as an increase relative to the respective control (unstimulated) cells.
Human monocytes were isolated from fresh buffy coats of healthy blood donors, kindly provided by the Centro Immunotrasfusionale, Hospital of Ferrara, Italy, through a Ficoll-Paque™ PLUS gradient followed by Percoll™. PBMCs were firstly obtained by 1.077 g/ML Ficoll-Paque™ PLUS (GE Healthcare Life Sciences, Little Chalfont, UK) density gradient separation according to the manufacturer's protocol. After collecting the mononuclear cells located at the interface between Ficoll and plasma-medium layer, these were washed with PBS, then layered over a solution of 1.130 g/mL Percoll™ (GE Healthcare Life Sciences) before centrifugation at 1650 rpm for 30 min at 4° C. The monocyte layer, which appeared cloudy and occasionally with few red spots, was carefully aspirated and washed with PBS to remove traces of Percoll™. The harvested monocytes were then suspended in RPMI 1640 medium (EuroClone) containing 2% FBS, and incubated at 37° C. and 5% CO2. After 1 h, non-adherent cells including residual lymphocytes were removed, and monocytes were detached using a cell scraper, then seeded onto plastic culture wells. […]
The supernatants of the cultures after 5 and 24 h were collected, centrifuged at 400×g for 10 min at 4° C., then analyzed for TF HGF, PGE-2 and IL-10 production using commercial ELISA kits (Thermo Fisher Scientific) according to the manufacturer's instructions. […]
Measurements of protein production or miRNA levels were expressed as fold increase over the respective control (unstimulated) cells, and are means (SD) of triplicates from one representative experiment of 4 experiments performed with cells from different donors.

Human monocytes [2] = conditions: GPI 300 uM, 24 hours of treatment (FIG. 5)
Excerpt: as §1
Human monocytes were isolated from fresh buffy coats of healthy blood donors, kindly provided by the Centro Immunotrasfusionale, Hospital of Ferrara, Italy, through a Ficoll-Paque™ PLUS gradient followed by Percoll™. […]
Total RNA was extracted from cultures after 12 and 24 h using the total RNA purification Plus kit, The RNA quality and concentration of the samples were measured with the NanoDrop™ ND-1000 (Thermo Fisher Scientific). […]
Real-time PCR was performed according to the user's manual of the Inflammatory RT^2 profiler PCR Array (Qiagen) with a StepOnePlus™ Real-Time PCR System (Applied Biosystems™, Foster City, CA, USA) and using RT^2 SYBR Green ROX FAST Master Mix (Qiagen). Thermal cycling and fluorescence detection were as follows: 95° C. for 10 min, followed by 40 cycles of 95° C. for 15 s, and 60° C. for 1 min. […] Data were analyzed using the Web-based PCR array data analysis software, which is available at https://www.qiagen.com/it/shop/genes-and-pathways/data-analysis-center-overview-page/. […]

Human monocytes [3] = conditions: GPI 300 uM, activated monocytes, 24 hours of treatment (FIG. 6)
Excerpt: Human monocytes were isolated from fresh buffy coats of healthy blood donors, kindly provided by the Centro Immunotrasfusionale, Hospital of Ferrara, Italy, through a Ficoll-Paque™ PLUS gradient followed by Percoll™. PBMCs were firstly obtained by 1.077 g/ML Ficoll-Paque™ PLUS (GE Healthcare Life Sciences, Little Chalfont, UK) density gradient separation according to the manufacturer's protocol. After collecting the mononuclear cells located at the interface between Ficoll and plasma-medium layer, these were washed with PBS, then layered over a solution of 1.130 g/mL Percoll™ (GE Healthcare Life Sciences) before centrifugation at 1650 rpm for 30 min at 4° C. The monocyte layer, which appeared cloudy and occasionally with few red spots, was carefully aspirated and washed with PBS to remove traces of Percoll™. The harvested monocytes were then suspended in RPMI 1640 medium (EuroClone) containing 2% FBS, and incubated at 37° C. and 5% CO2. After 1 h, non-adherent cells including residual lymphocytes were removed, and monocytes were detached using a cell scraper, then seeded onto plastic culture wells.
Treatment with GPI: 300 uM. […]
Measurements of protein production or miRNA levels were expressed as fold increase over the respective control (unstimulated) cells, and are means (SD) of triplicates from one representative experiment of 4 experiments performed with cells from different donors. […]

For “L-α-glycero-phospho-D-myo-inositol [GPI]”, the “protein expression level (fold increase over control cells)” value (Human monocytes [1]; 5 hours of treatment (FIG. 3)) was “inhibitory effects”, the “protein expression level (fold increase over control cells)” value (Human monocytes [1]; 24 hours of treatment (FIG. 4)) was “inhibitory effects” and the inflammatory cytokine production (Human monocytes [1]; monocytes in inflammation / LPS sepsis / viral infection mimicking environment) was “reduce”. The “miRNA level related to M1 (inflammatory) or M2 (antiinflammatory) commitment” value (Human monocytes [2]) was “inhibitory effects” and the “production of IL12 and 23 during inflammation” value (Human monocytes [3]) was “reduction”.
